The supplement of paper PMC6045584

Legend:
Assay in all cases: area under dose-response curve of surviving fraction (unscaled, Aref=0) (surviving fraction x log10(nM)); higher = more resistant
Conditions in all cases: exposure time: 5 days; dose range 0.5-1000 nM
CABOZANTINIB = compound: COc1cc2nccc(Oc3ccc(NC(=O)C4(C(=O)Nc5ccc(F)cc5)CC4)cc3)c2cc1OC [CABOZANTINIB]
Outline: (§1)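 Inhibitor was applied to tumour cell lines at eight concentrations (0.5 to 1000 nM) for five days in 384-well plates. Luminescence from CellTiter-Glo, scaled to DMSO-only wells, gave surviving fractions in three screens per line, and these were fitted by 3-parameter logistic regression with the drc R package. The area under the curve is an unscaled activity area. Aref was 0, and dose was on a log10 scale.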

LENVATINIB = compound: COc1cc2nccc(Oc3ccc(NC(=O)NC4CC4)c(Cl)c3)c2cc1C(N)=O [LENVATINIB]
Outline: as §1

[1] = compound: COc1ccc(-c2cc3c(C)nc(N)nc3n([C@H]3CC[C@H](OCCO)CC3)c2=O)cn1
Outline: as §1

[2] = compound: C[C@@H]1CN(CC(=O)Nc2ccc3c(c2)Cc2cccc(-c4cc(=O)cc(N5CCOCC5)o4)c2S3)C[C@H](C)O1
Outline: as §1

[3] = compound: C[C@H](CN(C)C)Oc1nc(Nc2cc3cccc(Cl)c3cn2)cnc1C#N
Outline: as §1

BEZ-235 = compound: Cn1c(=O)n(-c2ccc(C(C)(C)C#N)cc2)c2c3cc(-c4cnc5ccccc5c4)ccc3ncc21 [BEZ-235]
Outline: as §1

VORINOSTAT = compound: O=C(CCCCCCC(=O)Nc1ccccc1)NO [VORINOSTAT]
Outline: as §1

Test System	area under dose-response curve (CABOZANTINIB)	area under dose-response curve (LENVATINIB)	area under dose-response curve [1]	area under dose-response curve [2]	area under dose-response curve [3]	area under dose-response curve (BEZ-235)	area under dose-response curve (VORINOSTAT)
G292 BONE	3.03	2.62	1.89	3.2	3.2	2.18	3.05
HCC38 BREAST	4.07	3.98	2.96	2.58	2.59	2.59	4
HCC70 BREAST	3.5	3.79	2.19	3.65	3.06	2.57	3.13
HMLE3 BREAST	3.06	3.05	2.08	3.21		2.13	
HMT3552 BREAST					2.82		
HS578T BREAST	3.18		1.97	2.86	2.54	2.13	2.86
